Values joined by “and” are separate entries in the source; they are usually repeats but may differ in a detail not shown here. Identical values can stand only once.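 Tested at 5 concentrations; 48 h exposure; 96-well plates; endpoints linearly interpolated, else capped at highest concentration. Here, GI50 denotes the concentration required for 50% inhibition of growth. At the TGI there is no net growth.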
Legend:
Experiment in all cases: NCI-60 cell line screen, 48 h
[1] = tested on: RPMI-8226 leukemia
[2] = tested on: MOLT-4 leukemia
[3] = tested on: UO-31 renal
[4] = tested on: SNB-75 CNS
[5] = tested on: SF-539 CNS
[6] = tested on: HL-60(TB) leukemia
[7] = tested on: NCI-H23 lung
[8] = tested on: SR leukemia
[9] = tested on: RXF 393 renal
[10] = tested on: DU-145 prostate

Compound	GI50 [1]	TGI [1]	GI50 [2]	TGI [2]	GI50 [3]	TGI [3]	GI50 [4]	TGI [4]	GI50 [5]	TGI [5]	GI50 [6]	TGI [6]	GI50 [7]	TGI [7]	TGI [8]	GI50 [9]	TGI [9]	TGI [10]	GI50 [10]	GI50 [8]
N.N.N.N.O=C([O-])CCl.O=C([O-])CCl.[Co+3].[O-][Cl+3]([O-])([O-])[O-]	> 100 µM	> 100 µM	> 100 µM	> 100 µM	> 100 µM	> 100 µM	61.3 µM	> 100 µM	> 100 µM	> 100 µM	> 100 µM	> 100 µM	> 100 µM	> 100 µM	–	–	–	–	–	–
CCCCOC(=O)CNC(=O)OC/C=C/C#CC#C/C=C/COC(=O)NCC(=O)OCCCC	> 100 µM	> 100 µM	> 100 µM	> 100 µM	> 100 µM	> 100 µM	> 10 µM	> 10 µM and 88.8 µM	> 100 µM	> 100 µM	> 100 µM	> 100 µM	> 100 µM	> 100 µM	> 10 µM	> 100 µM	> 100 µM	–	–	–
Cc1c2n(c(=O)[nH]c1=O)C1OC(CO)C(O2)C1O (stereo unspecified)	–	> 100 µM	–	> 100 µM	–	> 100 µM	–	> 100 µM	–	> 100 µM	–	> 100 µM	–	> 100 µM	> 100 µM	–	> 100 µM	–	–	–
O=C1c2ccccc2C(=O)N1CCn1ccc(NC(c2ccccc2)(c2ccccc2)c2ccccc2)nc1=O	–	51.3 µM	–	43 µM	–	52.8 µM	–	74 µM	–	30.6 µM	–	44.2 µM	–	60.2 µM	–	–	35.5 µM	–	–	–
CC(C)C(CCl)NC(=O)c1cccc(C(=O)N[C@H](CCl)C(C)C)n1 (stereo in doubt)	–	> 100 µM	–	> 100 µM	–	> 100 µM	–	> 100 µM	–	> 100 µM	–	> 100 µM	–	> 100 µM	> 100 µM	–	> 100 µM	–	–	–
CC(=O)CCn1ncc(Cl)c(Cl)c1=O	–	> 100 µM	–	> 100 µM	–	34.6 µM	–	72 µM	–	38.5 µM	–	63.2 µM	–	32.6 µM	31.5 µM	–	32.9 µM	–	–	–
CSc1nc(=O)n(CCC#N)nc1SC	–	98.4 µM	–	67.6 µM	–	> 100 µM	–	> 100 µM	–	> 100 µM	–	30.7 µM	–	> 100 µM	> 100 µM	–	–	> 100 µM	–	–
Nc1nc(Cl)cc(NCCCCCCCCNc2cc(Cl)nc(N)n2)n1	–	> 100 µM	–	–	–	> 100 µM	–	74.4 µM	–	> 100 µM	–	48.5 µM	–	> 100 µM	96.8 µM	–	72 µM	–	–	–
CN1CC(=O)N2Cc3ccccc3-n3cccc3C2C1 (stereo unspecified)	–	–	–	–	–	> 100 µM	–	> 100 µM	–	> 100 µM	–	–	–	> 100 µM	–	–	> 100 µM	–	–	–
O=c1/c(=C/c2ccccc2[N+](=O)[O-])sc2nnc(-c3ccco3)n12	–	–	–	62 µM	–	96.8 µM	–	84.7 µM	–	33.9 µM	–	58.4 µM	–	64 µM	70.9 µM	–	32.6 µM	–	–	–
C[N+](C)(C)CC1CCCc2ccccc2C1=O (stereo unspecified)	–	–	0.388 µM	7.79 µM and 1.06 µM	–	30.7 µM	–	34.3 µM	8.75 µM	31.7 µM	1.16 µM	5.13 µM and 3.01 µM	–	35 µM	8.08 µM	15.8 µM	30.1 µM	> 56.3 µM	–	–
CC1(C)CC(=O)C(C=NC(=S)c2ccccc2)=C(O)C1	–	–	–	> 100 µM	–	> 100 µM	–	> 100 µM	–	> 100 µM	–	> 100 µM	–	> 100 µM	–	–	–	> 100 µM	–	–
OC(CC1SCCCS1)c1ccccc1 (stereo unspecified)	–	> 100 µM	–	> 100 µM	–	> 100 µM	–	> 100 µM	–	> 100 µM	–	> 100 µM	–	> 100 µM	–	–	> 100 µM	–	–	–
CC(=O)OC1COC(Oc2c(C)c3c4c(c2O)[C@@H](C)CC[C@@H]4[C@@H](C)C[C@H]3C=C(C)C)C(O)C1OC(C)=O (stereo partly specified)	9.02 µM	69.8 µM	6.64 µM	25.6 µM	17.3 µM	40.9 µM	–	–	22.4 µM	42.6 µM	–	–	7.49 µM	18.6 µM	–	11.4 µM	28.5 µM	32.5 µM	16 µM	–
COc1ccc(/C=C\[N+](=O)[O-])cc1OC	2.06 µM	5.28 µM	4.1 µM	38 µM	1.85 µM	3.87 µM	10.6 µM	29.8 µM	–	–	2.94 µM	7.79 µM	2.24 µM	6.52 µM	7.99 µM	1.81 µM	3.43 µM	11.9 µM	3.1 µM	2.38 µM
COC(=O)C(C(=O)c1ccccc1)C(C(=O)C(=O)Nc1ccc(OC)cc1OC)C(=O)C(=O)c1ccc(C)cc1 (stereo unspecified)	–	> 100 µM	–	> 100 µM	–	> 100 µM	–	> 100 µM	–	> 100 µM	–	> 100 µM	–	> 100 µM	> 100 µM	–	> 100 µM	–	–	–
Cc1cn2c(=O)c3ncn(C4OC(CO)C(O)C4O)c3n(C)c2n1 (stereo unspecified)	–	> 100 µM	–	> 100 µM	–	> 100 µM	–	> 100 µM	–	> 100 µM	–	> 100 µM	–	> 100 µM	–	–	> 100 µM	–	–	–
CC(=O)CCn1c(=S)sc2ccccc21	–	–	–	> 100 µM	–	> 100 µM	–	> 100 µM	–	> 100 µM	–	> 100 µM	–	> 100 µM	–	–	> 100 µM	> 100 µM	–	–
Clc1ccc2c(c1)[nH]c1c2nc2ccccn21	–	64.7 µM and 54.5 µM	28.4 µM and 5.44 µM	76.8 µM and 42.7 µM	–	53.7 µM and 37.5 µM	32.7 µM and 14.7 µM	> 100 µM and 37.2 µM	–	50.3 µM and 30.6 µM	–	–	–	72.3 µM and 44.9 µM	> 100 µM	26.6 µM and 11.7 µM	68.3 µM and 24.2 µM	–	–	–
COc1ccc2occ(CCC(=O)O)c2c1	–	> 100 µM	–	> 100 µM	–	–	–	> 100 µM	–	> 100 µM	–	> 100 µM	–	> 100 µM	–	–	> 100 µM	–	–	–
CCC12CCCN(Cc3ccccc3)C1c1c(n(C)c3ccccc13)CC2 (stereo unspecified)	–	> 253 µM	–	> 253 µM	–	–	–	–	–	> 253 µM	–	> 253 µM	–	> 253 µM	> 253 µM	–	> 253 µM	–	–	–

— PubChem BioAssay (NCI)
